Laboratory results taken from patent US6737383B1, “Herbicidal oxadiazolidines” (priority 1999, dated 2004).

Tests used:
[1] = system: surinam grass; assay: Test B pre/postemergence surinam grass; assay type: in vivo, Brachiaria decumbens
How it was run: (§1)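 Test chemicals in a non-phytotoxic solvent mixture with surfactant were sprayed preemergence onto planted seeds and postemergence onto plants 2 to 18 cm tall (1- to 4-leaf stage). After twelve to sixteen days in a greenhouse, injury was visually rated against untreated controls from 0 (no effect) to 10 (complete control).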

[2] = system: bamyardgrass; assay: Test B flood test barnyardgrass; assay type: in vivo, Echinochloa crus-galli
How it was run: (§2)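 Plants were grown to the 2-leaf stage before treatment with test chemical, then held in a greenhouse for twelve to sixteen days. Injury was visually rated against untreated controls on a 0–10 scale, where 0 is no effect and 10 is complete control.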

[3] = system: blackgrass; assay: Test B pre/postemergence blackgrass; assay type: in vivo, Alopecurus myosuroides
How it was run: as §1

[4] = system: purple nutsedge; assay: Test B pre/postemergence purple nutsedge; assay type: in vivo, Cyperus rotundus
How it was run: as §1

[5] = system: pigweed; assay: Test B pre/postemergence pigweed; assay type: in vivo, Amaranthus retroflexus
How it was run: as §1

[6] = system: cocklebur; assay: Test B pre/postemergence cocklebur; assay type: in vivo, Xanthium strumarium
How it was run: as §1

[7] = system: sugar beet; assay: Test B pre/postemergence sugar beet; assay type: in vivo, Beta vulgaris
How it was run: as §1

[8] = system: smallflower flatsedge; assay: Test B flood test smallflower flatsedge; assay type: in vivo, Cyperus difformis
How it was run: as §2

[9] = system: wild oat; assay: Test B pre/postemergence wild oat; assay type: in vivo, Avena fatua
How it was run: as §1

[10] = system: crabgrass; assay: Test B pre/postemergence crabgrass; assay type: in vivo, Digitaria sanguinalis
How it was run: as §1

[11] = system: velvetleaf; assay: Test B pre/postemergence velvetleaf; assay type: in vivo, Abutilon theophrasti
How it was run: as §1

[12] = system: rape; assay: Test B pre/postemergence rape; assay type: in vivo, Brassica napus
How it was run: as §1

[13] = system: bedstraw; assay: Test B pre/postemergence bedstraw; assay type: in vivo, Galium aparine
How it was run: as §1

[14] = system: wheat; assay: Test B pre/postemergence wheat; assay type: in vivo, Triticum aestivum
How it was run: as §1

[15] = system: corn; assay: Test B pre/postemergence corn; assay type: in vivo, Zea mays
How it was run: as §1

[16] = system: soybean; assay: Test B pre/postemergence soybean; assay type: in vivo, Glycine max
How it was run: as §1

[17] = Postemergence, Rate 125 g/ha, scale of 0 to 10 where 0 is no effect and 10 is complete control
[18] = Preemergence, Rate 62 g/ha, scale of 0 to 10 where 0 is no effect and 10 is complete control
[19] = Preemergence, Rate 125 g/ha, 0 is no effect, 10 is complete control
[20] = Preemergence, Rate 250 g/ha, scale 0 to 10, 0 is no effect, 10 is complete control
[21] = Preemergence, Rate 500 g/ha, scale 0 to 10 (0 no effect, 10 complete control)
[22] = Rate 62 g/ha, Postemergence, scale of 0 to 10 where 0 is no effect and 10 is complete control
[23] = Rate 250 g/ha, Postemergence, scale 0 to 10, 0 is no effect, 10 is complete control
[24] = Postemergence (flood test species), Rate 125 g/ha, scale of 0 to 10 where 0 is no effect and 10 is complete control
[25] = Rate 62 g/ha, Postemergence section, flood test species, scale of 0 to 10 where 0 is no effect and 10 is complete control
[26] = Rate 250 g/ha, Postemergence (flood test), scale 0 to 10, 0 is no effect, 10 is complete control
[27] = Rate 500 g/ha, listed under Postemergence (flood test species), scale 0 to 10
[28] = Rate 500 g/ha, Postemergence, scale 0 to 10

CC(C)N(C(=O)n1oc(=O)n(-c2nc(Cl)sc2Cl)c1=O)c1ccc(F)cc1 [Compound 160]
0: B. signalgrass plant response rating [1, 17] | B. signalgrass plant response rating [1, 18] | B. signalgrass plant response rating (0 to 10 scale) [1, 19] | B. signalgrass plant response rating [1, 20] | B. signalgrass plant response rating [1, 21] | B. signalgrass plant response rating [1, 22] | Plant response rating, B. signalgrass [1, 23] | B. signalgrass plant response rating ([1]; Rate 500 g/ha, Postemergence, scale 0 to 10, 0 no effect, 10 complete control) | Barnyardgrass plant response rating [2, 24] | Barnyardgrass plant response rating [2, 25] | Plant response rating, Barnyardgrass [2, 26] | Barnyardgrass plant response rating [2, 27] | Blackgrass plant response rating [3, 17] | Blackgrass plant response rating [3, 18] | Blackgrass plant response rating (0 to 10 scale) [3, 19] | Blackgrass plant response rating [3, 20] | Blackgrass plant response rating [3, 21] | Blackgrass plant response rating [3, 22] | Plant response rating, Blackgrass [3, 23] | Blackgrass plant response rating [3, 28] | Nutsedge plant response rating [4, 17] | Nutsedge plant response rating [4, 18] | Nutsedge plant response rating (0 to 10 scale) [4, 19] | Nutsedge plant response rating [4, 20] | Nutsedge plant response rating [4, 21] | Nutsedge plant response rating [4, 22] | Plant response rating, Nutsedge [4, 23] | Nutsedge plant response rating [4, 28] | Redroot pigweed plant response rating [5, 17] | Redroot pigweed plant response rating [5, 18] | Redroot pigweed plant response rating (0 to 10 scale) [5, 19] | Redroot pigweed plant response rating [5, 20] | Redroot pigweed plant response rating [5, 21] | Redroot pigweed plant response rating [5, 22] | Plant response rating, Redroot pigweed [5, 23] | Redroot pigweed plant response rating [5, 28] | Cocklebur plant response rating [6, 17] | Cocklebur plant response rating [6, 18] | Cocklebur plant response rating (0 to 10 scale) [6, 19] | Cocklebur plant response rating [6, 20] | Cocklebur plant response rating [6, 21] | Cocklebur plant response rating [6, 22] | Plant response rating, Cocklebur [6, 23] | Cocklebur plant response rating [6, 28] | Sugarbeets plant response rating [7, 17] | Sugarbeets plant response rating [7, 18] | Sugarbeets plant response rating (0 to 10 scale) [7, 19] | Sugarbeets plant response rating [7, 20] | Sugarbeets plant response rating [7, 21] | Sugarbeets plant response rating [7, 22] | Plant response rating, Sugarbeets [7, 23] | Sugarbeets plant response rating [7, 28] | S. Flatsedge plant response rating [8, 24] | S. Flatsedge plant response rating [8, 25] | Plant response rating, S. Flatsedge [8, 26] | S. Flatsedge plant response rating [8, 27] | Wild oats plant response rating [9, 18] | Wild oats plant response rating (0 to 10 scale) [9, 19] | Wild oats plant response rating [9, 20] | Wild oats plant response rating [9, 21] | Plant response rating, Wild oats [9, 23] | Wild oats plant response rating [9, 28] | Crabgrass plant response rating [10, 17] | Crabgrass plant response rating [10, 18] | Crabgrass plant response rating (0 to 10 scale) [10, 19] | Crabgrass plant response rating [10, 20] | Crabgrass plant response rating [10, 21] | Crabgrass plant response rating [10, 22] | Plant response rating, Crabgrass [10, 23] | Crabgrass plant response rating [10, 28] | Velvetleaf plant response rating [11, 18] | Velvetleaf plant response rating (0 to 10 scale) [11, 19] | Velvetleaf plant response rating [11, 20] | Velvetleaf plant response rating [11, 21] | Plant response rating, Velvetleaf [11, 23] | Velvetleaf plant response rating [11, 28] | Rape plant response rating [12, 17] | Rape plant response rating [12, 18] | Rape plant response rating (0 to 10 scale) [12, 19] | Rape plant response rating [12, 20] | Rape plant response rating [12, 21] | Rape plant response rating [12, 22] | Plant response rating, Rape [12, 23] | Rape plant response rating [12, 28] | Bedstraw plant response rating [13, 17] | Bedstraw plant response rating [13, 18] | Bedstraw plant response rating (0 to 10 scale) [13, 19] | Bedstraw plant response rating [13, 20] | Bedstraw plant response rating [13, 21] | Bedstraw plant response rating [13, 22] | Plant response rating, Bedstraw [13, 23] | Bedstraw plant response rating [13, 28] | Wheat plant response rating [14, 18] | Wheat plant response rating (0 to 10 scale) [14, 19] | Wheat plant response rating [14, 20] | Wheat plant response rating [14, 21] | Plant response rating, Wheat [14, 23] | Wheat plant response rating [14, 28] | Corn plant response rating [15, 17] | Corn plant response rating [15, 18] | Corn plant response rating (0 to 10 scale) [15, 19] | Corn plant response rating [15, 20] | Corn plant response rating [15, 21] | Corn plant response rating [15, 22] | Plant response rating, Corn [15, 23] | Corn plant response rating [15, 28] | Soybean plant response rating [16, 17] | Soybean plant response rating [16, 18] | Soybean plant response rating (0 to 10 scale) [16, 19] | Soybean plant response rating [16, 20] | Soybean plant response rating [16, 21] | Soybean plant response rating [16, 22] | Plant response rating, Soybean [16, 23] | Soybean plant response rating [16, 28]
